{"source": "patent US8771724B2", "about": "“Percutaneous absorption enhancer and transdermal preparation using the same” (TOA EIYO Ltd., priority 2008, dated 2014)", "experimental": "A permeation test was carried out based on the following procedure. First, an excised skin (Yucatan miniature swine or hairless mouse) was placed in a vertical diffusion cell in which temperature was kept at 37° C., and a receptor phase was filled with 7 mL of a phosphate-buffered saline (PBS, a pH of 7.5). The whole was left to stand still for one hour. […] Then, the test was started. […] Note that after each of the collections, an equivalent amount of PBS was supplemented into the receptor phase. Each PBS collected from the receptor phase was measured for a drug concentration by an HPLC method. […] Further, the slant of a permeation curve at the time when the permeation rate reached a steady state was used to calculate a skin permeation rate (μg/hr/cm^2).\nAn enhancing effect on drug permeation was evaluated for the case where a 1% isopropyl myristate solution was used as a control and for the case where 1% each of n-octyl-β-D-thioglucopyranoside and dioctyl sodium sulfosuccinate was added.", "note": "Structures can show the parent of a compound that is named as a salt. Where two headings read alike, the source gives them in different places."}
{"smiles": "CNC[C@H](O)c1cccc(O)c1", "note": "[Phenylephrine hydrochloride, phenylephrine hydrochloride]", "values": [{"measurement": "Percutaneous absorption enhancing action (Example/Comparative Example), cumulative permeation amount for 24 hours", "setting": "hairless, mouse, 24 h, pH 7.5", "value": 4, "unit": "times"}, {"measurement": "Percutaneous absorption enhancing action (Example/Comparative Example), skin permeation rate", "setting": "hairless, mouse, pH 7.5", "value": 8, "unit": "times"}]}
{"smiles": "CCOC(=O)[C@H](CCc1ccccc1)N[C@@H](C)C(=O)N(CC(=O)O)C1Cc2ccccc2C1", "note": "[Delapril hydrochloride, delapril hydrochloride]", "values": [{"measurement": "Percutaneous absorption enhancing action (Example/Comparative Example), cumulative permeation amount for 24 hours", "setting": "hairless, mouse, 24 h, pH 7.5", "value": 42, "unit": "times"}, {"measurement": "Percutaneous absorption enhancing action (Example/Comparative Example), skin permeation rate", "setting": "hairless, mouse, pH 7.5", "value": 26, "unit": "times"}]}
{"smiles": "COc1ccccc1N1CCN(CCCNc2cc(=O)n(C)c(=O)n2C)CC1", "note": "[Urapidil, urapidil]", "values": [{"measurement": "Percutaneous absorption enhancing action (Example/Comparative Example), cumulative permeation amount for 24 hours", "setting": "hairless, mouse, 24 h, pH 7.5", "value": 20, "unit": "times"}, {"measurement": "Percutaneous absorption enhancing action (Example/Comparative Example), skin permeation rate", "setting": "hairless, mouse, pH 7.5", "value": 18, "unit": "times"}]}
{"smiles": "CCOC(=O)[C@H](CCc1ccccc1)N[C@@H](C)C(=O)N1C(=O)N(C)C[C@H]1C(=O)O", "note": "[Imidapril hydrochloride, imidapril hydrochloride]", "values": [{"measurement": "Percutaneous absorption enhancing action (Example/Comparative Example), cumulative permeation amount for 24 hours", "setting": "hairless, mouse, 24 h, pH 7.5", "value": 12, "unit": "times"}, {"measurement": "Percutaneous absorption enhancing action (Example/Comparative Example), skin permeation rate", "setting": "hairless, mouse, pH 7.5", "value": 40, "unit": "times"}]}
{"smiles": "CCOC(=O)[C@H](CCc1ccccc1)N[C@H]1CS[C@H](c2cccs2)CN(CC(=O)O)C1=O", "note": "[Temocapril hydrochloride, temocapril hydrochloride]", "values": [{"measurement": "Percutaneous absorption enhancing action (Example/Comparative Example), cumulative permeation amount for 24 hours", "setting": "hairless, mouse, 24 h, pH 7.5", "value": 27, "unit": "times"}, {"measurement": "Percutaneous absorption enhancing action (Example/Comparative Example), skin permeation rate", "setting": "hairless, mouse, pH 7.5", "value": 46, "unit": "times"}]}
{"smiles": "CCOC(=O)[C@H](CCc1ccccc1)N[C@@H](C)C(=O)N1[C@H](C(=O)O)C[C@@H]2CCC[C@@H]21", "note": "[Ramipril, ramipril]", "values": [{"measurement": "Percutaneous absorption enhancing action (Example/Comparative Example), cumulative permeation amount for 24 hours", "setting": "hairless, mouse, 24 h, pH 7.5", "value": 5, "unit": "times"}, {"measurement": "Percutaneous absorption enhancing action (Example/Comparative Example), skin permeation rate", "setting": "hairless, mouse, pH 7.5", "value": 8, "unit": "times"}]}
{"smiles": "CN(Cc1cnc2nc(N)nc(N)c2n1)c1ccc(C(=O)N[C@@H](CCC(=O)O)C(=O)O)cc1", "note": "[Methotrexate, methotrexate]", "values": [{"measurement": "Percutaneous absorption enhancing action (Example/Comparative Example), cumulative permeation amount for 24 hours", "setting": "hairless, mouse, 24 h, pH 7.5", "value": 250, "unit": "times"}, {"measurement": "Percutaneous absorption enhancing action (Example/Comparative Example), skin permeation rate", "setting": "hairless, mouse, pH 7.5", "value": 180, "unit": "times"}]}
{"smiles": "CCOc1cc(CC(=O)N[C@@H](CC(C)C)c2ccccc2N2CCCCC2)ccc1C(=O)O", "note": "[Repaglinide, repaglinide]", "values": [{"measurement": "Percutaneous absorption enhancing action (Example/Comparative Example), cumulative permeation amount for 24 hours", "setting": "hairless, mouse, 24 h, pH 7.5", "value": 27, "unit": "times"}, {"measurement": "Percutaneous absorption enhancing action (Example/Comparative Example), skin permeation rate", "setting": "hairless, mouse, pH 7.5", "value": 33, "unit": "times"}]}
{"smiles": "CCOC(=O)[C@H](CCc1ccccc1)N[C@@H](C)C(=O)N1CCC[C@H]1C(=O)O", "note": "[Enalapril maleate, enalapril maleate]", "values": [{"measurement": "Percutaneous absorption enhancing action (Example/Comparative Example), cumulative permeation amount for 24 hours", "setting": "hairless, mouse, 24 h, pH 7.5", "value": 4, "unit": "times"}, {"measurement": "Percutaneous absorption enhancing action (Example/Comparative Example), skin permeation rate", "setting": "hairless, mouse, pH 7.5", "value": 44, "unit": "times"}]}
{"smiles": "N[C@@H](C(=O)N[C@@H]1C(=O)N2C(C(=O)O)=C(Cl)CS[C@H]12)c1ccccc1", "note": "[Cefaclor, cefaclor]", "values": [{"measurement": "Percutaneous absorption enhancing action (Example/Comparative Example), cumulative permeation amount for 24 hours", "setting": "hairless, mouse, 24 h, pH 7.5", "value": 420, "unit": "times"}, {"measurement": "Percutaneous absorption enhancing action (Example/Comparative Example), skin permeation rate", "setting": "hairless, mouse, pH 7.5", "value": 962, "unit": "times"}]}
{"smiles": "NNc1nncc2ccccc12", "note": "[Hydralazine hydrochloride, hydralazine hydrochloride]", "values": [{"measurement": "Percutaneous absorption enhancing action (Example/Comparative Example), cumulative permeation amount for 24 hours", "setting": "hairless, mouse, 24 h, pH 7.5", "value": 344, "unit": "times"}, {"measurement": "Percutaneous absorption enhancing action (Example/Comparative Example), skin permeation rate", "setting": "hairless, mouse, pH 7.5", "value": "1,411 times"}]}
{"smiles": "CC1(C)S[C@@H]2[C@H](NC(=O)[C@H](N)c3ccc(O)cc3)C(=O)N2[C@H]1C(=O)O", "note": "[Amoxicillin trihydrate, amoxicillin trihydrate]", "values": [{"measurement": "Percutaneous absorption enhancing action (Example/Comparative Example), cumulative permeation amount for 24 hours", "setting": "hairless, mouse, 24 h, pH 7.5", "value": 234, "unit": "times"}, {"measurement": "Percutaneous absorption enhancing action (Example/Comparative Example), skin permeation rate", "setting": "hairless, mouse, pH 7.5", "value": 254, "unit": "times"}]}
{"smiles": "CCC[C@H](N[C@@H](C)C(=O)N1[C@H](C(=O)O)C[C@@H]2CCCC[C@@H]21)C(=O)OCC", "note": "[Perindopril erbumine, perindopril erbumine]", "values": [{"measurement": "Percutaneous absorption enhancing action (Example/Comparative Example), cumulative permeation amount for 24 hours", "setting": "hairless, mouse, 24 h, pH 7.5", "value": 3, "unit": "times"}, {"measurement": "Percutaneous absorption enhancing action (Example/Comparative Example), skin permeation rate", "setting": "hairless, mouse, pH 7.5", "value": 12, "unit": "times"}]}
{"smiles": "CC(=O)N[C@H]1[C@H]([C@H](O)[C@H](O)CO)OC(C(=O)O)=C[C@@H]1N=C(N)N", "note": "[Zanamivir hydrate, zanamivir hydrate]", "values": [{"measurement": "Percutaneous absorption enhancing action (Example/Comparative Example), cumulative permeation amount for 24 hours", "setting": "hairless, mouse, 24 h, pH 7.5", "value": 47, "unit": "times"}, {"measurement": "Percutaneous absorption enhancing action (Example/Comparative Example), skin permeation rate", "setting": "hairless, mouse, pH 7.5", "value": 92, "unit": "times"}]}
{"smiles": "COc1cc(N)cn[n+]1-c1ccccc1", "note": "[Amezinium metilsulfate, amezinium metilsulfate]", "values": [{"measurement": "Percutaneous absorption enhancing action (Example/Comparative Example), cumulative permeation amount for 24 hours", "setting": "hairless, mouse, 24 h, pH 7.5", "value": 7, "unit": "times"}, {"measurement": "Percutaneous absorption enhancing action (Example/Comparative Example), skin permeation rate", "setting": "hairless, mouse, pH 7.5", "value": 24, "unit": "times"}]}
{"smiles": "CCCCC(=O)N(Cc1ccc(-c2ccccc2-c2nnn[nH]2)cc1)[C@H](C(=O)O)C(C)C", "note": "[Valsartan, valsartan]", "values": [{"measurement": "Percutaneous absorption enhancing action (Example/Comparative Example), cumulative permeation amount for 24 hours", "setting": "hairless, mouse, 24 h, pH 7.5", "value": 4, "unit": "times"}, {"measurement": "Percutaneous absorption enhancing action (Example/Comparative Example), skin permeation rate", "setting": "hairless, mouse, pH 7.5", "value": 12, "unit": "times"}]}
{"smiles": "CCCc1nc(C(C)(C)O)c(C(=O)OCc2oc(=O)oc2C)n1Cc1ccc(-c2ccccc2-c2nnn[nH]2)cc1", "note": "[Olmesartan medoxomil, olmesartan medoxomil]", "values": [{"measurement": "Percutaneous absorption enhancing action (Example/Comparative Example), cumulative permeation amount for 24 hours", "setting": "hairless, mouse, 24 h, pH 7.5", "value": 75, "unit": "times"}, {"measurement": "Percutaneous absorption enhancing action (Example/Comparative Example), skin permeation rate", "setting": "hairless, mouse, pH 7.5", "value": 94, "unit": "times"}]}
{"smiles": "C[C@]1(Cn2ccnn2)[C@H](C(=O)O)N2C(=O)C[C@H]2S1(=O)=O", "note": "[Tazobactam, tazobactam]", "values": [{"measurement": "Percutaneous absorption enhancing action (Example/Comparative Example), cumulative permeation amount for 24 hours", "setting": "hairless, mouse, 24 h, pH 7.5", "value": 6, "unit": "times"}, {"measurement": "Percutaneous absorption enhancing action (Example/Comparative Example), skin permeation rate", "setting": "hairless, mouse, pH 7.5", "value": 21, "unit": "times"}]}
{"smiles": "Cc1cccc(Nc2ccncc2S(=O)(=O)NC(=O)NC(C)C)c1", "note": "[Torasemide, torasemide]", "values": [{"measurement": "Percutaneous absorption enhancing action (Example/Comparative Example), cumulative permeation amount for 24 hours", "setting": "hairless, mouse, 24 h, pH 7.5", "value": 29, "unit": "times"}, {"measurement": "Percutaneous absorption enhancing action (Example/Comparative Example), skin permeation rate", "setting": "hairless, mouse, pH 7.5", "value": 40, "unit": "times"}]}
{"smiles": "CCOc1nc2cccc(C(=O)O)c2n1Cc1ccc(-c2ccccc2-c2nnn[nH]2)cc1", "note": "[Candesartan, candesartan]", "values": [{"measurement": "Percutaneous absorption enhancing action (Example/Comparative Example), cumulative permeation amount for 24 hours", "setting": "hairless, mouse, 24 h, pH 7.5", "value": 15, "unit": "times"}, {"measurement": "Percutaneous absorption enhancing action (Example/Comparative Example), skin permeation rate", "setting": "hairless, mouse, pH 7.5", "value": 183, "unit": "times"}]}
{"smiles": "N[C@@H](Cc1ccc(O)c(O)c1)C(=O)O", "note": "[Levodopa, levodopa]", "values": [{"measurement": "Percutaneous absorption enhancing action (Example/Comparative Example), cumulative permeation amount for 24 hours", "setting": "hairless, mouse, 24 h, pH 7.5", "value": 461, "unit": "times"}, {"measurement": "Percutaneous absorption enhancing action (Example/Comparative Example), skin permeation rate", "setting": "hairless, mouse, pH 7.5", "value": 289, "unit": "times"}]}
{"smiles": "NS(=O)(=O)c1cc(C(=O)O)cc(N2CCCC2)c1Oc1ccccc1", "note": "[Piretanide, piretanide]", "values": [{"measurement": "Percutaneous absorption enhancing action (Example/Comparative Example), cumulative permeation amount for 24 hours", "setting": "hairless, mouse, 24 h, pH 7.5", "value": 34, "unit": "times"}, {"measurement": "Percutaneous absorption enhancing action (Example/Comparative Example), skin permeation rate", "setting": "hairless, mouse, pH 7.5", "value": 51, "unit": "times"}]}
{"smiles": "CCOC(=O)[C@H](CCc1ccccc1)N[C@H]1CCCN2CCC[C@@H](C(=O)O)N2C1=O", "note": "[Cilazapril, cilazapril]", "values": [{"measurement": "Percutaneous absorption enhancing action (Example/Comparative Example), cumulative permeation amount for 24 hours", "setting": "hairless, mouse, 24 h, pH 7.5", "value": 13, "unit": "times"}, {"measurement": "Percutaneous absorption enhancing action (Example/Comparative Example), skin permeation rate", "setting": "hairless, mouse, pH 7.5", "value": 16, "unit": "times"}]}
{"smiles": "CC(C)c1nc(N(C)S(C)(=O)=O)nc(-c2ccc(F)cc2)c1/C=C/[C@@H](O)C[C@@H](O)CC(=O)[O-].CC(C)c1nc(N(C)S(C)(=O)=O)nc(-c2ccc(F)cc2)c1/C=C/[C@@H](O)C[C@@H](O)CC(=O)[O-].[Ca+2]", "note": "[Rosuvastatin calcium, rosuvastatin calcium]", "values": [{"measurement": "Percutaneous absorption enhancing action (Example/Comparative Example), cumulative permeation amount for 24 hours", "value": 46, "unit": "times"}, {"measurement": "Percutaneous absorption enhancing action (Example/Comparative Example), skin permeation rate", "value": 138, "unit": "times"}]}
{"smiles": "CC(C)n1c(/C=C/C(O)CC(O)CC(=O)O)c(-c2ccc(F)cc2)c2ccccc21", "note": "(centres unmarked) [Fluvastatin sodium, fluvastatin sodium]", "values": [{"measurement": "Percutaneous absorption enhancing action (Example/Comparative Example), cumulative permeation amount for 24 hours", "setting": "hairless, mouse, 24 h, pH 7.5", "value": 28, "unit": "times"}, {"measurement": "Percutaneous absorption enhancing action (Example/Comparative Example), skin permeation rate", "setting": "hairless, mouse, pH 7.5", "value": 54, "unit": "times"}]}
